Test system: Chemotherapeutic agent-caused diarrhea models of Balb/c mice
Test: Examples 1-229 (Table 3): oral CDK inhibitor, relief of diarrhea caused by a chemotherapeutic agent;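 further: percent of treated mice whose diarrhea grade fell below chemotherapy-group average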
Type: in vivo
Description: Construction of mouse animal models: Chemotherapeutic agent-caused diarrhea models of Balb/c mice were constructed according to the administration mode and frequency of the chemotherapeutic agent as shown in Table 3.
Balb/c mice were fed for 1 week, and then divided into groups. The experiment was divided into a control group, a chemotherapeutic agent group, and a CDK inhibitor group, each of which comprised 10 mice, to perform the administration experiment, for which the administration dosage, mode, time and frequency were shown in Table 3. The control group: being intragastrically administered with the same solvent as that used in the CDK inhibitor group (the time was shown in Table 3), and then being injected/intragastrically administered with the same solvent as that used in the chemotherapeutic agent group (the administration mode was shown in Table 3): the chemotherapeutic agent group: being intragastrically administered with the same solvent as that used in the CDK inhibitor group (the time was shown in Table 3), and then being injected/intragastrically administered with the chemotherapeutic agent (the type, administration mode and dosage were shown in Table 3); the CDK inhibitor group: being intragastrically administered with the CDK inhibitor (the time was shown in Table 3), and then being administered with the chemotherapeutic agent (the mode and dosage were shown in Table 3).
The diarrhea grading of mice was observed and recorded every day.

O=C1Nc2ccc([N+](=O)[O-])cc2/C1=C1/Nc2ccc(O)cc2/C1=N\O [AGM-130]
Relative remission rate (%) (Example 39, Fluorouracil (5-Fu) intraperitoneal injection 125 mg/kg single, CDK inhibitor oral 80 mg/kg single 12 h before, cycle 10 days): 30%

C[C@H]1CC[C@H](n2c3cnccc3c3cnc(Nc4ccc5c(n4)CCN(C(=O)CO)C5)nc32)CC1 [AMG925]
Relative remission rate (%) (Example 219, Fluorouracil 100 mg/kg and oxaliplatin 10 mg/kg intraperitoneal injection single, CDK inhibitor oral 150 mg/kg single, 2 h before, 10 days): 60%

O=C(NC1CCNCC1)c1[nH]ncc1NC(=O)c1c(Cl)cccc1Cl [AT-7519]
Relative remission rate (%) (Example 205, Gemcitabine 60 mg/kg and paclitaxel 10 mg/kg intravenous injection single, CDK inhibitor oral 50 mg/kg single, 4 h before, 8 days): 20%

CN1CC[C@H](c2c(O)cc(O)c3c(=O)cc(-c4ccccc4Cl)oc23)[C@H](O)C1 [Alvocidib]
Relative remission rate (%) (Example 119, Irinotecan (CPT-11) intraperitoneal injection 240 mg/kg single, CDK inhibitor oral 70 mg/kg single 6 h before, cycle 7 days): 40%
Relative remission rate (%) (Example 201, Gemcitabine 60 mg/kg and paclitaxel 10 mg/kg intravenous injection single, CDK inhibitor oral 70 mg/kg single, 6 h before, 8 days): 50%

COc1cc(F)ccc1-c1ncnc(Nc2cccc(C[S@](C)(=N)=O)c2)n1 [Atuveciclib]
Relative remission rate (%) (Example 158, Docetaxel (DTX) intraperitoneal injection 10 mg/kg single, CDK inhibitor oral 50 mg/kg single 10 h before, cycle 8 days): 30%

COc1cc(F)ccc1-c1cc(Nc2cc(CS(C)(=N)=O)ccn2)ncc1F (centres unmarked) [BAY-1251152]
Relative remission rate (%) (Example 38, Fluorouracil (5-Fu) intraperitoneal injection 125 mg/kg single, CDK inhibitor oral 60 mg/kg single 8 h before, cycle 10 days): 20%

CN1CCN(C(=O)c2ccc3cc(CCNc4ncnc5ccc(C#N)cc45)ccc3c2)CC1 [BCD-115]
Relative remission rate (%) (Example 157, Docetaxel (DTX) intraperitoneal injection 10 mg/kg single, CDK inhibitor oral 80 mg/kg single 10 h before, cycle 8 days): 40%
Relative remission rate (%) (Example 217, Fluorouracil 100 mg/kg and irinotecan 200 mg/kg intravenous injection single, CDK inhibitor oral 80 mg/kg single, 4 h before, 10 days): 20%

CC(=O)c1c(C)c2cnc(Nc3ccc(C4CCN(CCS(C)(=O)=O)CC4)cn3)nc2n(C2CCCC2)c1=O [BEBT-209]
Relative remission rate (%) (Example 187, Gemcitabine (GEM) intraperitoneal injection 120 mg/kg single, CDK inhibitor oral 80 mg/kg single, 4 h before, 8 days): 40%
Relative remission rate (%) (Example 207, Carboplatin 5 mg/kg and paclitaxel 10 mg/kg intraperitoneal injection single, CDK inhibitor oral 80 mg/kg single, 4 h before, 10 days): 50%

Nc1nccc(-c2ccc(O)c(-c3ccnc(N)n3)n2)n1 [BEY-1107]
Relative remission rate (%) (Example 154, Docetaxel (DTX) intraperitoneal injection 10 mg/kg single, CDK inhibitor oral 150 mg/kg single 8 h before, cycle 8 days): 40%
Relative remission rate (%) (Example 216, Fluorouracil 100 mg/kg and irinotecan 200 mg/kg intravenous injection single, CDK inhibitor oral 150 mg/kg single, 2 h before, 10 days): 30%

CCN1CCN(Cc2ccc(Nc3ncc(F)c(-c4cc(F)c5nc6n(c5c4)C(C)CCC6)n3)nc2)CC1 (centres unmarked) [BPI-16350]
Relative remission rate (%) (Example 30, Fluorouracil (5-Fu) intraperitoneal injection 125 mg/kg single, CDK inhibitor oral 150 mg/kg single 6 h before, cycle 10 days): 80%
Relative remission rate (%) (Example 71, Oxaliplatin intraperitoneal injection 20 mg/kg single, CDK inhibitor oral 150 mg/kg single 4 h before, cycle 8 days): 40%
Relative remission rate (%) (Example 196, Gemcitabine 60 mg/kg and paclitaxel 10 mg/kg intraperitoneal injection single, CDK inhibitor oral 150 mg/kg single, 2 h before, 8 days): 50%

Cl.Cl.Cl.Cl.OC[C@@H](O)[C@@H](CO)N1CCNCCNCCNCC1 [CS-3002]
Relative remission rate (%) (Example 149, Docetaxel (DTX) intraperitoneal injection 10 mg/kg single, CDK inhibitor oral 200 mg/kg single 4 h before, cycle 8 days): 70%
Relative remission rate (%) (Example 223, Fluorouracil 100 mg/kg and oxaliplatin 10 mg/kg intraperitoneal injection single, CDK inhibitor oral 200 mg/kg single, 2 h before, 10 days): 50%

CN1CCN(C2CCN(c3ccc(Nc4ncc5sc(C(=O)N(C)C)c(C6CCCC6)c5n4)nc3)CC2)CC1 [FCN437]
Relative remission rate (%) (Example 147, Docetaxel (DTX) intraperitoneal injection 10 mg/kg single, CDK inhibitor oral 90 mg/kg single 8 h before, cycle 8 days): 60%
Relative remission rate (%) (Example 206, Carboplatin 5 mg/kg and paclitaxel 10 mg/kg intraperitoneal injection single, CDK inhibitor oral 90 mg/kg single, 4 h before, 10 days): 40%

CC1CCC(n2c3cnccc3c3cnc(Nc4ccc5c(n4)CCN(C(=O)CO)C5)nc32)CC1 (centres unmarked) [FLX-925]
Relative remission rate (%) (Example 27, Fluorouracil (5-Fu) intraperitoneal injection 125 mg/kg single, CDK inhibitor oral 75 mg/kg single 4 h before, cycle 10 days): 50%
Relative remission rate (%) (Example 69, Oxaliplatin intraperitoneal injection 20 mg/kg single, CDK inhibitor oral 75 mg/kg single 4 h before, cycle 8 days): 60%
Relative remission rate (%) (Example 85, Oxaliplatin intravenous injection 17.5 mg/kg single, CDK inhibitor oral 75 mg/kg single 6 h before, cycle 8 days): 60%
Relative remission rate (%) (Example 114, Irinotecan (CPT-11) intramuscular injection 250 mg/kg single, CDK inhibitor oral 75 mg/kg single 4 h before, cycle 7 days): 50%

CC[C@H](Nc1nc(NCc2cnc(C)cc2C)c2ncn(C(C)C)c2n1)[C@@H](C)O [Fadraciclib]
Relative remission rate (%) (Example 122, Irinotecan (CPT-11) intraperitoneal injection 240 mg/kg single, CDK inhibitor oral 80 mg/kg single 8 h before, cycle 7 days): 30%
Relative remission rate (%) (Example 159, Docetaxel (DTX) intraperitoneal injection 10 mg/kg single, CDK inhibitor oral 80 mg/kg single 12 h before, cycle 8 days): 20%

CC(C)N1CCN(c2ccc(Nc3ncc4cc5n(c4n3)C3(CCCCC3)CNC5=O)nc2)CC1 [G1T38]
Relative remission rate (%) (Example 40, Fluorouracil (5-Fu) intraperitoneal injection 125 mg/kg single, CDK inhibitor oral 150 mg/kg single 1 h before, cycle 10 days): 20%
Relative remission rate (%) (Example 41, Fluorouracil (5-Fu) intraperitoneal injection 125 mg/kg single, CDK inhibitor oral 150 mg/kg single 4 h before, cycle 10 days): 40%
Relative remission rate (%) (Example 42, Fluorouracil (5-Fu) intraperitoneal injection 125 mg/kg single, CDK inhibitor oral 150 mg/kg single 8 h before, cycle 10 days): 70%
Relative remission rate (%) (Example 43, Fluorouracil (5-Fu) intraperitoneal injection 125 mg/kg single, CDK inhibitor oral 150 mg/kg single 16 h before, cycle 10 days): 50%
Relative remission rate (%) (Example 79, Oxaliplatin intraperitoneal injection 20 mg/kg single, CDK inhibitor oral 150 mg/kg single 1 h before, cycle 8 days): 20%
Relative remission rate (%) (Example 80, Oxaliplatin intraperitoneal injection 20 mg/kg single, CDK inhibitor oral 150 mg/kg single 2 h before, cycle 8 days): 40%
Relative remission rate (%) (Example 81, Oxaliplatin intraperitoneal injection 20 mg/kg single, CDK inhibitor oral 150 mg/kg single 4 h before, cycle 8 days): 40%
Relative remission rate (%) (Example 82, Oxaliplatin intraperitoneal injection 20 mg/kg single, CDK inhibitor oral 150 mg/kg single 8 h before, cycle 8 days): 70%
Relative remission rate (%) (Example 83, Oxaliplatin intraperitoneal injection 20 mg/kg single, CDK inhibitor oral 150 mg/kg single 12 h before, cycle 8 days): 70%
Relative remission rate (%) (Example 84, Oxaliplatin intraperitoneal injection 20 mg/kg single, CDK inhibitor oral 150 mg/kg single 16 h before, cycle 8 days): 50%
Relative remission rate (%) (Example 125, Irinotecan (CPT-11) intraperitoneal injection 240 mg/kg single, CDK inhibitor oral 150 mg/kg single 4 h before, cycle 7 days): 50%
Relative remission rate (%) (Example 126, Irinotecan (CPT-11) intraperitoneal injection 240 mg/kg single, CDK inhibitor oral 150 mg/kg single 6 h before, cycle 7 days): 60%
Relative remission rate (%) (Example 128, Irinotecan (CPT-11) intramuscular injection 240 mg/kg single, CDK inhibitor oral 150 mg/kg single 2 h before, cycle 7 days): 50%
Relative remission rate (%) (Example 163, Docetaxel (DTX) intraperitoneal injection 10 mg/kg single, CDK inhibitor oral 150 mg/kg single 8 h before, cycle 8 days): 70%
Relative remission rate (%) (Example 164, Docetaxel (DTX) intraperitoneal injection 10 mg/kg single, CDK inhibitor oral 150 mg/kg single 12 h before, cycle 8 days): 60%
Relative remission rate (%) (Example 211, Carboplatin 5 mg/kg and paclitaxel 10 mg/kg intraperitoneal injection single, CDK inhibitor oral 150 mg/kg single, 8 h before, 10 days): 40%
Relative remission rate (%) (Example 212, Carboplatin 5 mg/kg and paclitaxel 10 mg/kg intraperitoneal injection single, CDK inhibitor oral 150 mg/kg single, 12 h before, 10 days): 70%

CC1=Nc2c(F)cc(-c3nc(Nc4ccc(C5CCN(C)CC5)cn4)ncc3F)cc2C12CCCC2 [GLR2007]
Relative remission rate (%) (Example 155, Docetaxel (DTX) intraperitoneal 10 mg/kg single, CDK inhibitor oral 60 mg/kg single 8 h before, cycle 8 days): 50%
Relative remission rate (%) (Example 168, Docetaxel (DTX) intravenous injection 10 mg/kg single, CDK inhibitor oral 60 mg/kg single 4 h before, cycle 8 days): 30%
Relative remission rate (%) (Example 191, Gemcitabine (GEM) intraperitoneal injection 120 mg/kg single, CDK inhibitor oral 60 mg/kg single, 10 h before, 8 days): 50%

NS(=O)(=O)c1ccc(S(=O)(=O)Nc2cccc3c(Cl)c[nH]c23)cc1 [Indisulam]
Relative remission rate (%) (Example 74, Oxaliplatin intraperitoneal injection 20 mg/kg single, CDK inhibitor oral 175 mg/kg single 4 h before, cycle 8 days): 20%
Relative remission rate (%) (Example 190, Gemcitabine (GEM) intraperitoneal injection 120 mg/kg single, CDK inhibitor oral 175 mg/kg single, 4 h before, 8 days): 40%

CN1CCN(c2ccc(Nc3ncc4cc(C#N)c(=O)n(C5CCCC5)c4n3)cc2)CC1 [ON123300]
Relative remission rate (%) (Example 121, Irinotecan (CPT-11) intraperitoneal injection 240 mg/kg single, CDK inhibitor oral 250 mg/kg single 8 h before, cycle 7 days): 60%
Relative remission rate (%) (Example 202, Gemcitabine 60 mg/kg and paclitaxel 10 mg/kg intraperitoneal injection single, CDK inhibitor oral 250 mg/kg single, 2 h before, 8 days): 50%
